Reference: patent US20260215431A1, “AN HERBICIDAL COMBINATION, COMPOSITION AND METHOD OF CONTROLLING WEEDS USING THE SAME” (priority 2023, published 2026)

Columns and labels:
Euphorbia heterophylla = test: Greenhouse post-emergence herbicidal efficacy on Euphorbia heterophylla; assay type: in vivo
Experimental: (§1) The expected efficacy of a combination of L-glufosinate ammonium and the other herbicides was calculated using the well-established Colby method. Any difference between the observed and “expected” efficacy could be attributed to synergy between the two compounds.
(§2) In the Colby method, the expected (or predicted) response of a combination of herbicides is calculated by taking the product of the observed response for each individual component of the combination when applied alone, divided by 100, and subtracting this value from the sum of the observed response for each component when applied alone. An unexpected enhancement in efficacy of the combination is then determined by comparing the observed response of the combination to the expected (or predicted) response as calculated from the observed response of each individual component alone. If the observed response of the combination is greater than the expected (or predicted) response, or stated conversely, if the difference between the observed and expected response is greater than zero, then the combination is said to be synergistic or unexpectedly effective (Colby, S. R., Weeds, 1967(15), p. 20-22). The Colby method requires only a single dose of each herbicide applied alone and the mixture of both doses. The formula used to calculate the expected efficacy (EE) which was compared with the observed efficacy (OE) to determine the efficacy of the present disclosure is explained hereinbelow:
(§3) The expected efficacy for a combination of two active ingredients is as follows:
(§4) The expected efficacy for a combination of three active ingredients is as follows:
(§5) [formula] • wherein, • A=Observed efficacy of active ingredient A at the same concentration as used in the mixture. • B=Observed efficacy of the active ingredient B at the same concentration as used in the mixture. • C=Observed efficacy of the active ingredient C at the same concentration as used in the mixture.
(§6) Greenhouse trials were conducted to evaluate the efficacy of the combination of L-glufosinate ammonium and metribuzin, L-glufosinate ammonium and metribuzin+sulfentrazone and L-glufosinate ammonium and metribuzin+oxyfluorfen—on weeds Borreria verticillate, Euphorbia heterophylla.
(§7) The soil used was sandy clay loam—sand: 68.0%; silt: 8.0%; clay: 24.0%.
(§8) All treatments were in 4 replications per treatment with a spray volume of 150 L/ha.
The percentage efficacy was calculated at 7, 14 and 21 DAA. The target weed was Euphorbia heterophylla, and the concentration of the herbicide and the results are recorded in Table 2.
The percentage efficacy was calculated at 14, 21 and 28 DAA. The target weed was Euphorbia heterophylla, and the concentration of the herbicides and the results are recorded in Table 4.
The percentage efficacy was calculated at 14 and 21 DAA. The target weed was Euphorbia heterophylla, and the concentration of the herbicides and the results are recorded in Table 6.

Borreria verticillata = test: Greenhouse post-emergence herbicidal efficacy on Borreria verticillata; assay type: in vivo; conditions: 14 DAA
Experimental: as §1, §2, §3, §4, §5, §6, §7, §8
The percentage efficacy was calculated at 14 days after application (DAA). The target weed was Borreria verticillata, and the concentration of the herbicide and the results are recorded in Table 1.
The percentage efficacy was calculated at 14 DAA. The target weed was Borreria verticillata, and the concentration of the herbicides and the results are recorded in the Table 3.
The percentage efficacy was calculated at 14 DAA. The target weed was Borreria verticillata, and the concentration of the herbicides and the results are recorded in Table 5.

[1] = test system: Viola arvensis, Bromus spp., Lolium spp., Agropyron repens and Urtica urens; conditions: reported by Hoechst et al., 1991; cited from earlier work

## CP(=O)(O)CC[C@H](N)C(=O)O.N [L-glufosinate ammonium, ammonium (2S)-2-amino-4-(methylphosphinato)butyric acid]
Euphorbia heterophylla; Table 2, 7 DAA
  Observed efficacy (%) of L-glufosinate ammonium (150 g a.i./ha): 95%
Euphorbia heterophylla; Table 2, 14 DAA
  Observed efficacy (%) of L-glufosinate ammonium (150 g a.i./ha): 85%
Euphorbia heterophylla; Table 2, 21 DAA
  Observed efficacy (%) of L-glufosinate ammonium (150 g a.i./ha): 70%
Euphorbia heterophylla; Table 4, 14 DAA
  Observed efficacy (%) of L-glufosinate ammonium (150 g a.i./ha): 88%
Euphorbia heterophylla; Table 4, 21 DAA
  Observed efficacy (%) of L-glufosinate ammonium (150 g a.i./ha): 85%
Euphorbia heterophylla; Table 4, 28 DAA
  Observed efficacy (%) of L-glufosinate ammonium (150 g a.i./ha): 85%
Euphorbia heterophylla; Table 6, 14 DAA
  Observed efficacy (%) of L-glufosinate ammonium (150 g a.i./ha): 85%
Euphorbia heterophylla; Table 6, 21 DAA
  Observed efficacy (%) of L-glufosinate ammonium (150 g a.i./ha): 70%
Borreria verticillata; Table 1
  Observed efficacy (%) of L-glufosinate ammonium (150 g a.i./ha): 80%
Borreria verticillata; Table 3
  Observed efficacy (%) of L-glufosinate ammonium (150 g a.i./ha): 80%
Borreria verticillata; Table 5
  Observed efficacy (%) of L-glufosinate ammonium (150 g a.i./ha): 80%

## CCOc1cc(Oc2ccc(C(F)(F)F)cc2Cl)ccc1[N+](=O)[O-] [Oxyfluorfen]
Euphorbia heterophylla; Table 4, 14 DAA
  Observed efficacy (%) of oxyfluorfen (430 g a.i./ha): 65%
Euphorbia heterophylla; Table 4, 21 DAA
  Observed efficacy (%) of oxyfluorfen (430 g a.i./ha): 50%
Euphorbia heterophylla; Table 4, 28 DAA
  Observed efficacy (%) of oxyfluorfen (430 g a.i./ha): 40%
Borreria verticillata; Table 3, 430 g a.i./ha
  Observed efficacy (%) of oxyfluorfen (430 g a.i./ha): 70%

## CSc1nnc(C(C)(C)C)c(=O)n1N [Metribuzin]
Euphorbia heterophylla; Table 2, 7 DAA
  Observed efficacy (%) of metribuzin (252 g a.i./ha): 35%
Euphorbia heterophylla; Table 2, 14 DAA
  Observed efficacy (%) of metribuzin (252 g a.i./ha): 25%
Euphorbia heterophylla; Table 2, 21 DAA
  Observed efficacy (%) of metribuzin (252 g a.i./ha): 15%
Euphorbia heterophylla; Table 4, 14 DAA
  Observed efficacy (%) of metribuzin (252 g a.i./ha): 30%
Euphorbia heterophylla; Table 4, 21 DAA
  Observed efficacy (%) of metribuzin (252 g a.i./ha): 20%
Euphorbia heterophylla; Table 4, 28 DAA
  Observed efficacy (%) of metribuzin (252 g a.i./ha): 10%
Euphorbia heterophylla; Table 6, 14 DAA
  Observed efficacy (%) of metribuzin (252 g a.i./ha): 85%
Euphorbia heterophylla; Table 6, 21 DAA
  Observed efficacy (%) of metribuzin (252 g a.i./ha): 85%
Borreria verticillata; Table 1
  Observed efficacy (%) of metribuzin (252 g a.i./ha): 30%
Borreria verticillata; Table 3
  Observed efficacy (%) of metribuzin (252 g a.i./ha): 30%
Borreria verticillata; Table 5
  Observed efficacy (%) of metribuzin (252 g a.i./ha): 55%

## Cc1nn(-c2cc(NS(C)(=O)=O)c(Cl)cc2Cl)c(=O)n1C(F)F [Sulfentrazone]
Euphorbia heterophylla; Table 6, 14 DAA
  Observed efficacy (%) of sulfentrazone (300 g a.i./ha): 25%
Euphorbia heterophylla; Table 6, 21 DAA
  Observed efficacy (%) of sulfentrazone (300 g a.i./ha): 15%
Borreria verticillata; Table 5, 300 g a.i./ha
  Observed efficacy (%) of sulfentrazone (300 g a.i./ha): 30%

## CP(=O)(O)CCC(N)C(=O)O (racemic) [glufosinate, DL-homoalanin-4-yl(methyl)phosphinic acid]
[1]
  Control of weed species by glufosinate: either not combated, or only weakly combated
